# Measurements reported in patent US10407467B2, “Polymyxin derivatives and their use in combination therapy together with different antibiotics” (priority 2013, dated 2019).
# Structures can show the parent of a compound that is named as a salt. Where two headings read alike, the source gives them in different places. Numbered stars: 1 amine (or outer) side, 2 acyl side, 3 side chain; on linkers, the order of the positions; unused ones are H or OH. Bridge positions count the residues as written; N and C are the ends. Square brackets hold non-standard residues; d marks the D form. Peptide text beside a SMILES is read from it. * marks the point of attachment. ξ: configuration not given here. NHCH2(1,3-C6H4)CH2CO = O=C(Cc1cccc(CN[*:1])c1)[*:2]; ξβ3hPhg = O=C(CC(N[*:1])c1ccccc1)[*:2]; X6 = N[C@@H](CC(=O)*)c1ccc2ccccc2c1; ξβ3hGly(cHex) = NC(CC(=O)*)C1CCCCC1; Thr(3ξ) = CC(O)[C@H](N)C(=O)O; Dab = NCC[C@H](N)C(=O)O; Dap = NC[C@H](N)C(=O)O
# Key:
# P. aeruginosa ATCC 27853 = conditions: for Log reduction from vehicle (CFU/g): ATCC 27853, in vivo, iv; for reduction of thigh burdens: 4 mg/kg IV three times at 1, 3.5 and 6 hours post infection
# Pseudomonas aeruginosa [1] = experiment: MIC, compound in combination with a second agent (broth microdilution); assay type: cell-based; conditions: 1:1 (wt:wt) combination with Rifampicin, MIC = total drug concentration; for MIC P. aeruginosa ATCC 27853: strain ATCC 27853; for MIC P. aeruginosa ATCC-47: strain ATCC-47; for MIC P. aeruginosa CCUG 59626: strain CCUG 59626; for MIC P. aeruginosa ATCC CRM-9027: strain ATCC CRM-9027
# How it was run: (§1)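 Compound and second agent (e.g. rifampicin) were combined 1:1 w/w, compound weighed as its TFA or sulphate salt. Inoculum was a direct colony suspension from 18-24 hour Mueller-Hinton agar at 0.5 McFarland. MIC is the total drug concentration; lower of duplicates reported, modal value when tested repeatedly.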
# Escherichia coli [2] = experiment: as above; assay type: cell-based; conditions: 1:1 (wt:wt) combination with Rifampicin, MIC = total drug concentration; for MIC E. coli ATCC25922: strain ATCC25922
# How it was run: as §1
# Acinetobacter baumannii [3] = experiment: as above; assay type: cell-based; conditions: 1:1 (wt:wt) combination with Rifampicin, MIC = total drug concentration; for MIC A. baumannii CCUG57249: strain CCUG57249; for MIC A. baumannii NCTC 13424: strain NCTC 13424; for MIC A. baumannii ATCC BAA-747: strain ATCC BAA-747; for MIC A. baumannii NCTC 13423: strain NCTC 13423
# How it was run: as §1
# Klebsiella pneumoniae [4] = experiment: as above; assay type: cell-based; conditions: 1:1 (wt:wt) combination with Rifampicin, MIC = total drug concentration; for MIC K. pneumoniae ATCC 4352: strain ATCC 4352; for MIC K. pneumoniae CCUG-59348: strain CCUG-59348; for MIC K. pneumoniae NCTC 13438: strain NCTC 13438; for MIC K. pneumoniae ATCC-BAA-2146: strain ATCC-BAA-2146
# How it was run: as §1
# Pseudomonas aeruginosa [5] = experiment: MIC, sole activity (no second agent); assay type: cell-based; conditions: in the absence of Rifampicin; for MIC P. aeruginosa ATCC 27853: strain ATCC27853; for MIC P. aeruginosa ATCC-47: strain ATCC-47; for MIC P. aeruginosa CCUG 59626: strain CCUG 59626; for MIC P. aeruginosa ATCCCRM-9027: strain ATCCCRM-9027
# How it was run: (§2)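 Inoculum: direct colony suspension (18-24 h MH agar), 0.5 McFarland. Medium: cation-adjusted MHB. Up to 4 strains/species; reported relative to Polymyxin B.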
# Escherichia coli [6] = experiment: MIC, sole activity (no second agent); assay type: cell-based; conditions: in the absence of Rifampicin; for MIC E. coli ATCC25922: strain ATCC25922; for MIC E. coli NCTC9001: strain NCTC9001
# How it was run: as §2
# Acinetobacter baumannii [7] = experiment: MIC, sole activity (no second agent); assay type: cell-based; conditions: in the absence of Rifampicin; for MIC A. baumannii ATCC13424: strain ATCC13424; for MIC A. baumannii CCUG57249: strain CCUG 57249; for MIC A. baumannii ATCCBAA-747: strain ATCCBAA-747
# How it was run: as §2
# Klebsiella pneumoniae [8] = experiment: MIC, sole activity (no second agent); assay type: cell-based; conditions: in the absence of Rifampicin; for MIC K. pneumoniae ATCC 4352: strain ATCC 4352; for MIC K. pneumoniae CCUG-59348: strain CCUG-59348; for MIC K. pneumoniae NCTC-13438: strain NCTC-13438; for MIC K. pneumoniae ATCC-BAA2146: strain ATCC-BAA2146
# How it was run: as §2
# HK-2 cell line = experiment: In vitro renal cell toxicity assay (resazurin reduction); assay type: cell-based, human
# [9] = 2 mg/kg IV three times at 1, 3.5 and 6 hours post infection
Structure (SMILES),"Log reduction from vehicle (CFU/g) (P. aeruginosa ATCC 27853; 2 mg/kg, 6 h) [log CFU/g]","Log reduction from vehicle (CFU/g) (P. aeruginosa ATCC 27853; 4 mg/kg, 6 h) [log CFU/g]",MIC P. aeruginosa ATCC 27853 (Pseudomonas aeruginosa [1]) [micrograms/mL],MIC P. aeruginosa ATCC-47 (Pseudomonas aeruginosa [1]) [micrograms/mL],MIC P. aeruginosa CCUG 59626 (Pseudomonas aeruginosa [1]) [micrograms/mL],MIC E. coli ATCC25922 (Escherichia coli [2]) [micrograms/mL],MIC A. baumannii CCUG57249 (Acinetobacter baumannii [3]) [micrograms/mL],MIC A. baumannii NCTC 13424 (Acinetobacter baumannii [3]) [micrograms/mL],MIC K. pneumoniae CCUG-59348 (Klebsiella pneumoniae [4]) [micrograms/mL],MIC P. aeruginosa ATCC 27853 (Pseudomonas aeruginosa [5]) [micrograms/mL],MIC P. aeruginosa ATCC-47 (Pseudomonas aeruginosa [5]) [micrograms/mL],MIC P. aeruginosa CCUG 59626 (Pseudomonas aeruginosa [5]) [micrograms/mL],MIC E. coli ATCC25922 (Escherichia coli [6]) [micrograms/mL],MIC A. baumannii ATCC13424 (Acinetobacter baumannii [7]) [micrograms/mL],MIC A. baumannii CCUG57249 (Acinetobacter baumannii [7]) [micrograms/mL],MIC K. pneumoniae CCUG-59348 (Klebsiella pneumoniae [8]) [micrograms/mL],MIC P. aeruginosa ATCC CRM-9027 (Pseudomonas aeruginosa [1]) [micrograms/mL],MIC A. baumannii ATCC BAA-747 (Acinetobacter baumannii [3]) [micrograms/mL],MIC K. pneumoniae ATCC-BAA-2146 (Klebsiella pneumoniae [4]) [micrograms/mL],MIC E. coli NCTC9001 (Escherichia coli [6]) [micrograms/mL],also measured
"CC(C)C[C@@H]1NC(=O)[C@@H](Cc2ccccc2)NC(=O)[C@H](CCN)NC(=O)[C@@H](NC(=O)[C@H](CCN)NC(=O)[C@@H](NC(=O)C(O)C2CCCCC2)C(C)O)CCNC(=O)[C@H](C(C)O)NC(=O)[C@H](CCN)NC(=O)[C@H](CCN)NC1=O (mixture of isomers) [Example 27, 2-(RS)-(2-Hydroxy-2-cyclohexyl)ethanoyl polymyxin B nonapeptide]",0.24,−0.58,0.25,0.5,0.5,0.25,0.5,0.5,2,0.125,2,0.25,2,4,4,>8,–,–,–,–,"effect on thigh burdens (P. aeruginosa ATCC 27853; 2 or 4 mg/kg IV three times at 1, 3.5 and 6 hours post infection): did not reduce thigh burdens significantly; MIC K. pneumoniae ATCC 4352 (Klebsiella pneumoniae [4]): 0.125 micrograms/mL; MIC K. pneumoniae NCTC 13438 (Klebsiella pneumoniae [4]): 0.5 micrograms/mL; MIC K. pneumoniae ATCC 4352 (Klebsiella pneumoniae [8]): 2 micrograms/mL; MIC K. pneumoniae NCTC-13438 (Klebsiella pneumoniae [8]): >8 micrograms/mL"
"CC(C)C[C@@H]1NC(=O)[C@@H](Cc2ccccc2)NC(=O)[C@H](CCN)NC(=O)[C@@H](NC(=O)[C@H](CCN)NC(=O)[C@@H](NC(=O)CC(N)c2ccccc2)C(C)O)CCNC(=O)[C@H](C(C)O)NC(=O)[C@H](CCN)NC(=O)[C@H](CCN)NC1=O (stereo partly drawn) [Example 28, [3-(R,S)-3-Amino-3-phenylpropanoyl] Polymyxin B nonapeptide] (ξβ3hPhg-[Thr(3ξ)][Dab][Dab][Dab][dF]L[Dab][Dab][Thr(3ξ)]; lactam 3-C)",–,–,0.125,0.5,0.25,0.125,0.125,0.125,2,–,1,0.5,–,1,1,>32,0.5,0.125,0.5,32,"Log reduction from vehicle (CFU/g) (P. aeruginosa ATCC 27853; 2 mg/kg, 9 h): −0.38 log CFU/g; Log reduction from vehicle (CFU/g) (P. aeruginosa ATCC 27853; 4 mg/kg, 9 h): 0.20 log CFU/g; MIC A. baumannii NCTC 13423 (Acinetobacter baumannii [3]): ≤0.06 micrograms/mL; MIC K. pneumoniae NCTC 13438 (Klebsiella pneumoniae [4]): 0.25 micrograms/mL; MIC K. pneumoniae ATCC-BAA2146 (Klebsiella pneumoniae [8]): 32 micrograms/mL; MIC K. pneumoniae NCTC-13438 (Klebsiella pneumoniae [8]): 32 micrograms/mL"
"CC(C)C[C@@H]1NC(=O)[C@@H](Cc2ccccc2)NC(=O)[C@H](CCN)NC(=O)[C@@H](NC(=O)[C@H](CCN)NC(=O)[C@@H](NC(=O)C[C@H](N)c2ccc3ccccc3c2)C(C)O)CCNC(=O)[C@H](C(C)O)NC(=O)[C@H](CCN)NC(=O)[C@H](CCN)NC1=O (stereo partly drawn) [Example 38, (S)-3-Amino-3-(naphthalene-2-yl)propanoyl polymyxin B nonapeptide, trifluoroacetate salt] (X6-[Thr(3ξ)][Dab][Dab][Dab][dF]L[Dab][Dab][Thr(3ξ)]; lactam 3-C)",−0.37,4.94,0.25,0.25,0.5,0.5,0.25,0.25,2,0.25,0.25,0.125,4,1,4,>32,0.5,0.25,0.5,8,effect on thigh burdens (P. aeruginosa ATCC 27853; [9]): did not affect thigh burdens significantly; reduction of thigh burdens (P. aeruginosa ATCC 27853): 4.9 Log10 CFU/g; MIC P. aeruginosa ATCCCRM-9027 (Pseudomonas aeruginosa [5]): 0.25 micrograms/mL; MIC A. baumannii ATCCBAA-747 (Acinetobacter baumannii [7]): 0.5 micrograms/mL; MIC K. pneumoniae ATCC-BAA2146 (Klebsiella pneumoniae [8]): 8 micrograms/mL
"CC(C)C[C@@H]1NC(=O)[C@@H](Cc2ccccc2)NC(=O)[C@H](CCN)NC(=O)[C@@H](NC(=O)[C@H](CN)NC(=O)[C@@H](NC(=O)CC(N)C2CCCCC2)C(C)O)CCNC(=O)[C@H](C(C)O)NC(=O)[C@H](CCN)NC(=O)[C@H](CCN)NC1=O (stereo partly drawn) [Example 47, [3-Amino-3-cyclohexyl-propionyl]-L-Thr-L-Dap-polymyxin B heptapeptide, TFA salt] ({ξβ3hGly(cHex)}-[Thr(3ξ)][Dap][Dab][Dab][dF]L[Dab][Dab][Thr(3ξ)]; lactam 3-C)",−0.09,1.07,0.125,0.125,0.125,≤0.06,≤0.06,0.125,–,≤0.06,0.25,0.125,4,1,0.25,>32,0.125,≤0.06,0.25,4,effect on thigh burdens (P. aeruginosa ATCC 27853; [9]): did not affect thigh burdens significantly; reduction of thigh burdens (P. aeruginosa ATCC 27853): 1.1 Log10 CFU/g; MIC E. coli NCTC9001 (Escherichia coli [2]; strain NCTC9001): 0.125 micrograms/mL; MIC A. baumannii NCTC 13423 (Acinetobacter baumannii [3]): 0.125 micrograms/mL; MIC K. pneumoniae ATCC 4352 (Klebsiella pneumoniae [4]): 0.125 micrograms/mL; MIC P. aeruginosa ATCCCRM-9027 (Pseudomonas aeruginosa [5]): ≤0.06 micrograms/mL; MIC A. baumannii ATCCBAA-747 (Acinetobacter baumannii [7]): 0.5 micrograms/mL; MIC A. baumannii NCTC 13423 (Acinetobacter baumannii [7]; strain NCTC13423): 0.5 micrograms/mL; MIC K. pneumoniae ATCC 4352 (Klebsiella pneumoniae [8]): 0.5 micrograms/mL; MIC K. pneumoniae ATCC-BAA2146 (Klebsiella pneumoniae [8]): 0.5 micrograms/mL
"CC(C)C[C@@H]1NC(=O)[C@@H](Cc2ccccc2)NC(=O)[C@H](CCN)NC(=O)[C@@H](NC(=O)[C@H](CCN)NC(=O)[C@@H](NC(=O)Cc2cccc(CN)c2)C(C)O)CCNC(=O)[C@H](C(C)O)NC(=O)[C@H](CCN)NC(=O)[C@H](CCN)NC1=O (some centres unmarked) [Example A1, 2-(3-(Aminomethyl)phenyl) ethanoyl polymyxin B nonapeptide] ({NHCH2(1,3-C6H4)CH2CO}-[Thr(3ξ)][Dab][Dab][Dab][dF]L[Dab][Dab][Thr(3ξ)]; lactam 3-C)",–,–,–,–,–,–,–,–,–,–,–,–,–,–,–,–,–,–,–,–,HK-2 IC50 rel to PMB (HK-2 cell line): 8
